Measured values as given in the NIST ThermoML archive (doi:10.1016/j.jct.2015.03.004).

Legend:
[1] = refractive index (Na D-line) (dimensionless); mn = molality of the nth substance listed, in mol/kg; conditions: 298.15 K, 101.33 kPa, Liquid, Standard Abbe refractometry
[2] = mn = molality of the nth substance listed, in mol/kg; conditions: 298.15 K, 101.33 kPa, Liquid; for speed of sound: Sing-around technique in a fixed-path interferometer; for mass density: Vibrating tube method
[3] = refractive index (Na D-line) (dimensionless); conditions: 298.15 K; 101.33 kPa; Liquid; Standard Abbe refractometry
[4] = 101.33 kPa, Liquid; for speed of sound: Sing-around technique in a fixed-path interferometer; for mass density: Vibrating tube method

CCOS(=O)(=O)[O-].CCn1cc[n+](C)c1 [1-ethyl-3-methylimidazolium ethyl sulfate] + C1CCCCC1
m1 = 0.0999
Conditions	mass density [kg/m3]	refractive index	speed of sound [m/s]
[1]	–	1.4237	–
[2]	773.884	–	1254.3

C1CCCCC1 [cyclohexane]
Conditions	refractive index
[3]	1.4235

[4], 298.15 K
Conditions	mass density [kg/m3]	speed of sound [m/s]
–	773.87	1253.7

c1ccsc1 [thiophene]
Conditions	refractive index
[3]	1.5252

[4]
Conditions	mass density [kg/m3]	speed of sound [m/s]
298.15 K	1058.56	1259
303.15 K	–	1258.7

CCCCCCn1cc[n+](C)c1.[Br-] [3-hexyl-1-methyl-1H-imidazolium bromide]
Conditions	refractive index
[3]	1.5308

[4], 298.15 K
Conditions	mass density [kg/m3]	speed of sound [m/s]
–	1223.81	1587.5

CCCCCC [hexane]
Conditions	refractive index
[3]	1.3722

[4], 298.15 K
Conditions	mass density [kg/m3]	speed of sound [m/s]
–	655.175	1077.2

CCCCCCn1cc[n+](C)c1.[Br-] [3-hexyl-1-methyl-1H-imidazolium bromide] + C1CCCCC1
m1 = 0.0999
Conditions	mass density [kg/m3]	refractive index	speed of sound [m/s]
[1]	–	1.4236	–
[2]	773.932	–	1254.3

CCCCCCn1cc[n+](C)c1.[Br-] [3-hexyl-1-methyl-1H-imidazolium bromide] + CCCCCC
m1 = 0.1
Conditions	mass density [kg/m3]	refractive index	speed of sound [m/s]
[1]	–	1.3737	–
[2]	655.221	–	1077.4

CCCCCC [hexane] + c1ccsc1
m2 = 0
Conditions	mass density [kg/m3]	refractive index	speed of sound [m/s]
[1]	–	1.3722	–
[2]	655.175	–	1077.2

CCOS(=O)(=O)[O-].CCn1cc[n+](C)c1 [1-ethyl-3-methylimidazolium ethyl sulfate]
Conditions	refractive index
[3]	1.4784

[4], 298.15 K
Conditions	mass density [kg/m3]	speed of sound [m/s]
–	1237.72	1680.2

c1ccsc1 [thiophene] + C1CCCCC1
Conditions	mass density, [2] [kg/m3]	refractive index, [1]	speed of sound, [2] [m/s]
m1 = 0.0404	774.512	1.424	1253.4
m1 = 0.0503	774.668	1.4241	1253.4
m1 = 0.0602	774.824	1.4242	1253.3
m1 = 0.0703	774.983	1.4243	1253.2
m1 = 0.0803	775.14	1.4244	1253.2
m1 = 0.0902	775.295	1.4245	1253.1
m1 = 0.1003	775.452	1.4246	1253
m1 = 0.1103	775.608	1.4247	1252.9
m1 = 0.1203	775.764	1.4248	1252.9
m1 = 0.1303	775.917	1.4249	1252.8
m1 = 0.1402	776.075	1.425	1252.7
m1 = 0.1503	776.227	1.4251	1252.6
m1 = 0.1603	776.38	1.4252	1252.6
m1 = 0.1702	776.53	1.4253	1252.5
m1 = 0.1802	776.684	1.4254	1252.4

c1ccsc1 [thiophene] + CCCCCC
Conditions	mass density, [2] [kg/m3]	refractive index, [1]	speed of sound, [2] [m/s]
m1 = 0.0303	655.82	1.3725	1077.3
m1 = 0.0354	655.927	1.3726	1077.3
m1 = 0.0403	656.03	1.3727	1077.3
m1 = 0.0453	656.133	1.3728	1077.3
m1 = 0.0504	656.239	1.3729	1077.4
m1 = 0.0554	656.34	1.373	1077.4
m1 = 0.0603	656.441	1.3731	1077.4
m1 = 0.0654	656.545	1.3732	1077.4
m1 = 0.0704	656.646	1.3733	1077.5
m1 = 0.0753	656.745	1.3734	1077.5
m1 = 0.0804	656.847	1.3735	1077.5
m1 = 0.0852	656.945	1.3736	1077.6
m1 = 0.0903	657.046	1.3737	1077.6
m1 = 0.0954	657.146	1.3738	1077.6
m1 = 0.1004	657.243	1.3739	1077.7
m1 = 0.1053	657.342	1.374	1077.7
m1 = 0.1104	657.441	1.3741	1077.8

C1CCCCC1 [cyclohexane] + c1ccsc1
m2 = 0
Conditions	mass density [kg/m3]	refractive index	speed of sound [m/s]
[1]	–	1.4235	–
[2]	773.87	–	1253.7
